Experiment [1] relates to A549. Kind of experiment: In vitro cytotoxicity against human A549 (lung cancer) cell line. The format is functional, cell-based.
Experiment [2] deals with Col2. Briefly: In vitro cytotoxicity against human Col2 (colon cancer) cell line. It counts as functional, cell-based.
In experiment [3] the target is T1, DNA topoisomerase II (Homo sapiens, UniProt P11388+Q02880). Kind of experiment: In vitro inhibition of human DNA topoisomerase II activity. The format is protein assay. The following applies: concentration not given here.
Experiment [4] has as its target T2, DNA topoisomerase 1 (Homo sapiens) (UniProt P11387).
T2 sequence (whole entry): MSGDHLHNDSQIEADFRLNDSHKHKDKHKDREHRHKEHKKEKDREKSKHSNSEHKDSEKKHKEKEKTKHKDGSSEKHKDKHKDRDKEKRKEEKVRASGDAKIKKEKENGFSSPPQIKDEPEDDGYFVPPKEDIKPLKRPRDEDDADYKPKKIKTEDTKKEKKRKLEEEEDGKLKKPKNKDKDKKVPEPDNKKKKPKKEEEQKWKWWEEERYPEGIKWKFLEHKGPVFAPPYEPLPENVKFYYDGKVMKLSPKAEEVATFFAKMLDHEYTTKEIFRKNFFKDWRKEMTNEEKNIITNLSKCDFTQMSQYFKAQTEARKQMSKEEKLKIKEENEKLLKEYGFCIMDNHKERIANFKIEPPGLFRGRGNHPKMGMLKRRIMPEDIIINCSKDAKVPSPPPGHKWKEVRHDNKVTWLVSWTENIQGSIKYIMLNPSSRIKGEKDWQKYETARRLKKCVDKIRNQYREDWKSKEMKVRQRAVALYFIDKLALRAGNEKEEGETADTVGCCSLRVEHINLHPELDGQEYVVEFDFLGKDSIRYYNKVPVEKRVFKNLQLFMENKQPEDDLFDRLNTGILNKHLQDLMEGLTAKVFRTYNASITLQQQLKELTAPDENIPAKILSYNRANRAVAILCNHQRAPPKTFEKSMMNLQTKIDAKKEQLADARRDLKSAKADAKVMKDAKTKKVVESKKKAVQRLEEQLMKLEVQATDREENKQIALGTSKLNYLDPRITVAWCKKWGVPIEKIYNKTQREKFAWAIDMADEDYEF
Kind of experiment: In vitro inhibition of human DNA topoisomerase I activity. More on the design: concentration or dose not given beside the values. Conditions: concentration not given here.

Experiment [5] concerns SNU-638. Kind of experiment: In vitro cytotoxicity against human SNU-638 (stomach cancer) cell line. The format is functional, cell-based.
Experiment [6] deals with T1, DNA topoisomerase II. Kind of experiment: Inhibitory activity against DNA topoisomerase II. The format is protein assay.
The target of experiment [7] is T1, DNA topoisomerase II. Briefly: Inhibitory activity against topo II-mediated decatenation of DNA. It counts as protein assay.

With `O=C1C(Nc2ccccc2)=C(Cl)C(=O)c2ncncc21`, the IC50 came to 3.54 µM in experiment [1], 1.19 µM in experiment [2] and 770 nM in experiment [5]. The values for the inhibition in experiment [3] and in experiment [4] were 41% and 27%, respectively.
`CCc1ccccc1/N=C1/C(=O)c2cncnc2C(O)=C1Cl`: the IC50 in experiment [1] was 4.65 µM; in experiment [2] it was 4.37 µM; in experiment [5], 700 nM. For the same molecule, the inhibition is 82% in experiment [3] and 20% in experiment [4].
Turning to `Cc1ccc(/N=C2/C(=O)c3cncnc3C(O)=C2Cl)c(Br)c1`, the IC50 in experiment [1] is 4.07 µM; in experiment [2], 3.04 µM; in experiment [6], 40.5 µM; in experiment [5] it was 890 nM. Besides, the inhibition in experiment [3] and in experiment [4] was 100% throughout.
With `O=C1C(Nc2cccc(Cl)c2)=C(Cl)C(=O)c2ncncc21`, the IC50 in experiment [1] is 4.22 µM; in experiment [2], 3.55 µM; in experiment [5], 810 nM. In addition, the inhibition came to 2% in experiment [3] and 12% in experiment [4].
The matching figures for `Cc1ccc(NC2=C(Cl)C(=O)c3ncncc3C2=O)cc1C`: 4.49 µM, 3.73 µM, 990 nM, 20% and 100%.
The matching figures for `O=C1C(Nc2ccc3c(c2)OCO3)=C(Cl)C(=O)c2ncncc21`: 1.67 µM, 0.88 µM, 550 nM, 2% and 27%.
Consider `O=C1C(Nc2ccccc2Br)=C(Cl)C(=O)c2ncncc21`, for which the IC50 in experiment [1] was found to be 4.47 µM; in experiment [2], 3.4 µM; in experiment [7] it was 17.3 µM; in experiment [5] it was 990 nM. For the same molecule, the figures for the inhibition in experiment [3] and in experiment [4] were 99% and 89%, respectively.
Consider `O=C1C(Nc2ccc(Br)cc2)=C(Cl)C(=O)c2ncncc21`, for which the IC50 in experiment [1] worked out at 4.31 µM; in experiment [2], 3.02 µM; in experiment [7], 15.1 µM; in experiment [5], 690 nM. Also, the figures for the inhibition in experiment [3] and in experiment [4] were 94% and 58%, respectively.
Regarding `CCOc1ccccc1/N=C1/C(=O)c2cncnc2C(O)=C1Cl`, the values for the IC50 in experiment [1], in experiment [2] and in experiment [5] were 3.28 µM, 0.73 µM and 690 nM, respectively. Besides, the inhibition in experiment [3] worked out at 1%; in experiment [4] it was 9%.
The corresponding values for `CCc1ccc(NC2=C(Cl)C(=O)c3ncncc3C2=O)cc1` are 3.44 µM, 0.7 µM, 640 nM, 4% and 88%.
The corresponding values for `COc1ccc(/N=C2/C(=O)c3cncnc3C(O)=C2Cl)c(OC)c1` are 2.02 µM, 1.07 µM, 610 nM, 20% and 35%.
The matching figures for `Cc1cccc(NC2=C(Cl)C(=O)c3ncncc3C2=O)c1`: 5.17 µM, 5.67 µM, 970 nM, 2% and 96%.
As to `Cc1c2ccncc2c(C)c2c1[nH]c1ccccc12` [ELLIPTECINE], the figures for the IC50 in experiment [1], in experiment [2] and in experiment [5] were 1.22 µM, 1.22 µM and 2000 nM, respectively.
Consider `O=C1C(Nc2cccc(Br)c2)=C(Cl)C(=O)c2ncncc21`, for which the IC50 in experiment [1] was determined as 3.68 µM; in experiment [2], 5.07 µM; in experiment [5], 1180 nM. For the same molecule, the inhibition in experiment [3] worked out at 2%; in experiment [4], 9%.
The matching figures for `Cc1ccc(NC2=C(Cl)C(=O)c3ncncc3C2=O)cc1`: 5.81 µM, 0.87 µM, 730 nM, 1% and 12%.
The matching figures for `Cc1ccccc1/N=C1/C(=O)c2cncnc2C(O)=C1Cl`: 3.6 µM, 3.77 µM, 900 nM, 6% and 29%.
Consider `COc1cc([C@@H]2c3cc4c(cc3[C@@H](O[C@@H]3O[C@@H]5CO[C@@H](C)O[C@H]5[C@H](O)[C@H]3O)[C@H]3COC(=O)[C@H]23)OCO4)cc(OC)c1O`, for which, in experiment [3], the inhibition turned out to be 48%.
Turning to `COc1cccc2c1C(=O)c1c(O)c3c(c(O)c1C2=O)C[C@@](O)(C(=O)CO)C[C@@H]3O[C@H]1C[C@H](N)[C@H](O)[C@H](C)O1` [DOXORUBICIN], the IC50 in experiment [1] came out at 0.3 µM; in experiment [2] it was 0.52 µM; in experiment [5], 690 nM.

As a reminder, the IC50 is the concentration that inhibits the measured activity by half. One may read the inhibition as how much of the control response was suppressed.

For the origin of these results see ChEMBL document CHEMBL1147454, “6-Arylamino-7-chloro-quinazoline-5,8-diones as novel cytotoxic and DNA topoisomerase inhibitory agents” (Bioorg Med Chem Lett, 2004).
